PubChem BioAssay AID730 (The Scripps Research Institute Molecular Screening Center, 2007)
Calls of active or inactive are those of the source.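 How the source made its calls: active means EC50 at or below 10 micromolar, taken from the curve fit or judged by hand from the single doses; inactive means EC50 above 10 micromolar.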

target: CHO S1P3/Ga15 NFAT-beta-lactamase reporter, FRET fluorescence; test: S1P3 reporter-cell activation, dose response, counter-screen for 5HT1E agonist project (AID 730)

Row | EC50 | Structure (SMILES)
1 | > 40 µM (inactive) | CCOC(=O)C1=C(C)NC(=O)NC1c1ccc(OCC(=O)Nc2ccccc2)c(OC)c1 (stereo not drawn)
2 | > 40 µM (inactive) | CN1CCN(/C(=N\O)c2nonc2N)CC1
3 | > 40 µM (inactive) | Cn1cc(/C(Cc2ccccc2)=N\O)c2ccccc21
